Values after ≈ are worked out from the molar mass of the structure shown.
Experiments:
MDA-MB-231 = assay: Inhibition of cell migration in human MDA-MB-231 cells; format: functional, cell-based
Escherichia coli [1] = assay: Antibacterial activity against tetracycline resistant Escherichia coli; format: functional
Escherichia coli [2] = assay: Antibacterial activity against tetracycline resistant Escherichia coli 1-849; format: functional

Compound | MIC (Escherichia coli [1]) [µM] | also measured
CCCCCCCCCCCCCC(=O)NCCNC(=O)C(C)(C)C(=O)NCCO[C@@H]1O[C@H](COC(C)=O)[C@@H](O[C@@H]2O[C@H](COC(C)=O)[C@H](OC(C)=O)[C@H](OC(C)=O)[C@H]2OC(C)=O)[C@H](OC(C)=O)[C@H]1OC(C)=O |  | IC50 (MDA-MB-231): > 50 µM
C[C@H]1O[C@@H](O[C@@H]2[C@@H](O)[C@H](N)C[C@H](N)[C@H]2O[C@H]2O[C@H](CN)[C@@H](O)[C@H](O)[C@H]2N)[C@H](O)[C@@H](O)[C@@H]1N | 9 (≈ 4.21 µg/mL) | 
CON(CC(=O)Nc1ccc2c(c1O)C(=O)C1=C(O)[C@]3(O)C(=O)C(C(N)=O)=C(O)[C@@H](N(C)C)[C@@H]3[C@@H](O)[C@@H]1[C@H]2C)[C@H]1O[C@H](CO)[C@@H](O)[C@H](O)[C@H]1N |  | MIC (Escherichia coli [2]): 4 µg/mL (≈ 5.65 µM)
C[C@H]1O[C@@H](O[C@@H]2[C@@H](O)[C@H](N)C[C@H](N)[C@H]2O[C@H]2O[C@H](CN)[C@@H](O)[C@H](O)[C@H]2N)[C@H](O)[C@@H](O)[C@H]1N | 9 (≈ 4.21 µg/mL) | 
NC[C@@H]1O[C@H](O[C@H]2[C@@H](O)[C@H](O[C@@H]3[C@@H](O)[C@H](N)C[C@H](N)[C@H]3O[C@H]3O[C@H](CN)[C@@H](O)[C@H](O)[C@H]3N)O[C@@H]2CO)[C@H](N)[C@@H](O)[C@@H]1O [FRAMYCETIN] | 2 (≈ 1.23 µg/mL) | 

— ChEMBL document CHEMBL5241060, “Glycorandomization: A promising diversification strategy for the drug development” (Eur J Med Chem, 2021)
